From paper PMC4468608, “A distinct p53 target gene set predicts for response to the selective p53–HDM2 inhibitor NVP-CGM097” (eLife, 2015)
Read-outs that look alike come from different tables or passages of the source.

System: cell lines from the Cancer Cell Line Encyclopedia (CCLE)
Assay: High-throughput cell viability assay, CCLE cell line panel (n = 356)
Assay type: cell-based, human
Details: Homo sapiens
Experimental: Cell lines were partitioned into sensitive and insensitive groups based on compound potency (IC50). […] All other cell lines were obtained from ATCC (American Type Culture Collection), DSMZ (Deutsche Sammlung von Mikroorganismen und Zellkulturen), and HSRRB (Health Science Research Resources Bank) and cultured in RPMI or Dulbecco's modified Eagle's medium plus 10% FBS (Invitrogen, Carlsbad, CA) at 37°C, 5% CO2.

Q: How did the IC50 (HCC-56, TP53 MUT) turn out when COc1cc2c(cc1OC(C)C)[C@H](c1ccc(Cl)cc1)N(c1ccc(N(C)C[C@H]3CC[C@H](N4CCNC(=O)C4)CC3)cc1)C(=O)C2 [NVP-CFC218] was run?
A: The IC50 was greater than 8 µM.

Q: And the IC50 (HCT 116 TP53(-/-), HCT 116, TP53 WT)?
A: The IC50 was 3.38 µM.

Q: What about the IC50 (HCT-15, HCT-15, TP53 MUT) of the same compound?
A: Its IC50 is greater than 8 µM.

Q: And the IC50 (HD-MY-Z, TP53 MUT)?
A: The IC50 was greater than 8 µM.

Q: What about the IC50 (HEC-50B, TP53 MUT) of the same compound?
A: Its IC50 is greater than 8 µM.

Q: And the IC50 (HEC-59, TP53 MUT)?
A: Its IC50 is greater than 8 µM.

Q: What about the IC50 (HEC-151, TP53 MUT) of the same compound?
A: The IC50 was 7.91 µM.

Q: What about the IC50 (HEL 92.1.7, HEL 92.1.7, TP53 MUT) of the same compound?
A: The IC50 was greater than 8 µM.

Q: And the IC50 (HEY A8, Hey-A8, TP53 WT)?
A: Its IC50 is 3.12 µM.

Q: And the IC50 (HGC-27, HGC-27, TP53 MUT)?
A: Its IC50 is 7.41 µM.

Q: What about the IC50 (HH, TP53 MUT) of the same compound?
A: Its IC50 is greater than 8 µM.

Q: What about the IC50 (HLF, TP53 MUT) of the same compound?
A: Its IC50 is greater than 8 µM.

Q: What about the IC50 (HMC-1-8, TP53 MUT) of the same compound?
A: The IC50 was greater than 8 µM.

Q: What about the IC50 (HPBALL, HPB-ALL, TP53 MUT) of the same compound?
A: Its IC50 is greater than 8 µM.

Q: What about the IC50 (HSC-2, read-out: NVP- CFC218 IC50 (µM), cell line HSC-2, upper_aerodigestive_tract, TP53 MUT) of the same compound?
A: The IC50 was greater than 8 µM.

Q: What about the IC50 (HSC-3, HSC-3, TP53 MUT) of the same compound?
A: Its IC50 is greater than 8 µM.

Q: And the IC50 (HSC-4, HSC-4, TP53 MUT)?
A: Its IC50 is greater than 8 µM.

Q: What about the IC50 (HT-29, HT-29, TP53 MUT) of the same compound?
A: The IC50 was greater than 8 µM.

Q: And the IC50 (HT-144, HT-144, TP53 WT)?
A: Its IC50 is 3.86 µM.

Q: What about the IC50 (HepG2, Hep G2, TP53 WT) of the same compound?
A: The IC50 was 1.95 µM.

Q: What about the IC50 (Hs 294T, TP53 MUT) of the same compound?
A: The IC50 was 3.61 µM.

Q: What about the IC50 (Hs 683, Hs 683, TP53 MUT) of the same compound?
A: The IC50 was greater than 8 µM.

Q: What about the IC50 (Hs 695T, TP53 WT) of the same compound?
A: Its IC50 is 3.65 µM.

Q: And the IC50 (Hs 729, TP53 MUT)?
A: Its IC50 is greater than 8 µM.

Q: What about the IC50 (Hs746T, Hs 746T, TP53 MUT) of the same compound?
A: Its IC50 is greater than 8 µM.

Q: What about the IC50 (Hs766T, Hs 766T, TP53 MUT) of the same compound?
A: Its IC50 is greater than 8 µM.

Q: What about the IC50 (Hs 936.T, TP53 WT) of the same compound?
A: The IC50 was 6.44 µM.

Q: And the IC50 (Hs-578T, Hs 578T, TP53 MUT)?
A: The IC50 was greater than 8 µM.

Q: What about the IC50 (HuCCT-1, HuCCT1, TP53 MUT) of the same compound?
A: Its IC50 is greater than 8 µM.

Q: And the IC50 (HuT78, HuT 78, TP53 MUT)?
A: Its IC50 is greater than 8 µM.

Q: And the IC50 (Huh-7, HuH-7, TP53 MUT)?
A: Its IC50 is greater than 8 µM.

Q: What about the IC50 (IA-LM, TP53 MUT) of the same compound?
A: The IC50 was greater than 8 µM.

Q: And the IC50 (IGR-39, IGR-39, TP53 MUT)?
A: The IC50 was greater than 8 µM.

Q: And the IC50 (IGROV-1, IGROV1, TP53 MUT)?
A: Its IC50 is greater than 8 µM.

Q: And the IC50 (IM95, read-out: NVP- CFC218 IC50 (µM), cell line IM95, stomach, TP53 WT)?
A: The IC50 was greater than 8 µM.

Q: What about the IC50 (IPC-298, IPC-298, TP53 MUT) of the same compound?
A: The IC50 was greater than 8 µM.

Q: And the IC50 (IST-MES2, TP53 MUT)?
A: The IC50 was greater than 8 µM.

Q: What about the IC50 (J82, TP53 MUT) of the same compound?
A: Its IC50 is greater than 8 µM.

Q: And the IC50 (JHH7, JHH-7, TP53 MUT)?
A: Its IC50 is greater than 8 µM.

Q: What about the IC50 (JHH-4, JHH-4, TP53 MUT) of the same compound?
A: The IC50 was greater than 8 µM.

Q: And the IC50 (JHUEM-2, TP53 WT)?
A: The IC50 was 1.73 µM.

Q: And the IC50 (JMSU-1, JMSU-1, TP53 MUT)?
A: The IC50 was greater than 8 µM.

Q: And the IC50 (JVM-3, JVM-3, TP53 WT)?
A: Its IC50 is 3.64 µM.

Q: And the IC50 (K029AX, TP53 WT)?
A: Its IC50 is 3.61 µM.

Q: What about the IC50 (KARPAS-299, KARPAS-299, TP53 MUT) of the same compound?
A: Its IC50 is greater than 8 µM.

Q: And the IC50 (KATO III, TP53 MUT)?
A: The IC50 was greater than 8 µM.

Q: What about the IC50 (KCL-22, KCL-22, TP53 MUT) of the same compound?
A: Its IC50 is greater than 8 µM.

Q: What about the IC50 (KE-39, TP53 MUT) of the same compound?
A: The IC50 was greater than 8 µM.

Q: And the IC50 (KE-97, KE-97, TP53 WT)?
A: Its IC50 is 1.38 µM.

Q: What about the IC50 (KMBC-2, TP53 MUT) of the same compound?
A: The IC50 was 3.55 µM.

Q: What about the IC50 (KMM-1, KMM-1, TP53 MUT) of the same compound?
A: Its IC50 is greater than 8 µM.

Q: What about the IC50 (KMRC-1, read-out: NVP- CFC218 IC50 (µM), cell line KMRC-1, kidney, TP53 WT) of the same compound?
A: The IC50 was greater than 8 µM.

Q: And the IC50 (KMS-11, KMS-11, TP53 WT)?
A: Its IC50 is greater than 8 µM.

Q: What about the IC50 (KMS-26, KMS-26, TP53 MUT) of the same compound?
A: Its IC50 is greater than 8 µM.

Q: And the IC50 (KMS-27, read-out: NVP- CFC218 IC50 (µM), cell line KMS-27, haem._and_lymphoid_tissue, TP53 WT)?
A: Its IC50 is greater than 8 µM.

Q: What about the IC50 (KMS-28BM, read-out: NVP- CFC218 IC50 (µM), cell line KMS-28BM, haem._and_lymphoid_tissue, TP53 WT) of the same compound?
A: Its IC50 is greater than 8 µM.

Q: What about the IC50 (KNS-42, read-out: NVP- CFC218 IC50 (µM), cell line KNS-42, central_nervous_system, TP53 MUT) of the same compound?
A: Its IC50 is greater than 8 µM.

Q: What about the IC50 (KNS-60, TP53 MUT) of the same compound?
A: Its IC50 is greater than 8 µM.

Q: And the IC50 (KNS-62, KNS-62, TP53 MUT)?
A: Its IC50 is greater than 8 µM.

Q: What about the IC50 (KO52, TP53 MUT) of the same compound?
A: The IC50 was greater than 8 µM.

Q: What about the IC50 (KP4, TP53 WT) of the same compound?
A: The IC50 was greater than 8 µM.

Q: What about the IC50 (KP-2, TP53 MUT) of the same compound?
A: Its IC50 is greater than 8 µM.

Q: What about the IC50 (KP-3, TP53 MUT) of the same compound?
A: Its IC50 is greater than 8 µM.

Q: What about the IC50 (KP-N-SI9s, TP53 WT) of the same compound?
A: The IC50 was 1.2 µM.

Q: What about the IC50 (KS-1, TP53 WT) of the same compound?
A: The IC50 was 2.2 µM.

Q: And the IC50 (KU812, KU812, TP53 MUT)?
A: The IC50 was greater than 8 µM.

Q: What about the IC50 (KU-19-19, KU-19-19, TP53 WT) of the same compound?
A: Its IC50 is 6.89 µM.

Q: What about the IC50 (KYM-1, TP53 WT) of the same compound?
A: The IC50 was 2.95 µM.

Q: And the IC50 (KYSE-30, KYSE-30, TP53 MUT)?
A: Its IC50 is greater than 8 µM.

Q: And the IC50 (KYSE-70, KYSE-70, TP53 MUT)?
A: The IC50 was greater than 8 µM.

Q: And the IC50 (KYSE-140, KYSE-140, TP53 MUT)?
A: Its IC50 is greater than 8 µM.

Q: What about the IC50 (KYSE-180, KYSE-180, TP53 MUT) of the same compound?
A: The IC50 was greater than 8 µM.

Q: And the IC50 (KYSE-410, read-out: NVP- CFC218 IC50 (µM), cell line KYSE-410, oesophagus, TP53 MUT)?
A: The IC50 was greater than 8 µM.

Q: And the IC50 (KYSE-450, read-out: NVP- CFC218 IC50 (µM), cell line KYSE-450, oesophagus, TP53 MUT)?
A: Its IC50 is greater than 8 µM.

Q: And the IC50 (KYSE-510, read-out: NVP- CFC218 IC50 (µM), cell line KYSE-510, oesophagus, TP53 MUT)?
A: Its IC50 is greater than 8 µM.

Q: What about the IC50 (KYSE-520, read-out: NVP- CFC218 IC50 (µM), cell line KYSE-520, oesophagus, TP53 MUT) of the same compound?
A: Its IC50 is greater than 8 µM.

Q: And the IC50 (L3.3, TP53 WT)?
A: Its IC50 is greater than 8 µM.

Q: And the IC50 (L-363, L-363, TP53 MUT)?
A: The IC50 was greater than 8 µM.

Q: What about the IC50 (L-428, read-out: NVP- CFC218 IC50 (µM), cell line L-428, haem._and_lymphoid_tissue, TP53 MUT) of the same compound?
A: The IC50 was greater than 8 µM.

Q: What about the IC50 (LC-1/sq-SF, TP53 MUT) of the same compound?
A: The IC50 was greater than 8 µM.

Q: What about the IC50 (LCLC-103H, TP53 MUT) of the same compound?
A: Its IC50 is greater than 8 µM.

Q: And the IC50 (LK-2, TP53 MUT)?
A: Its IC50 is greater than 8 µM.

Q: And the IC50 (LN-18, LN-18, TP53 MUT)?
A: Its IC50 is greater than 8 µM.

Q: And the IC50 (LN-229, read-out: NVP- CFC218 IC50 (µM), cell line LN-229, central_nervous_system, TP53 WT)?
A: The IC50 was greater than 8 µM.

Q: What about the IC50 (LOU-NH91, LOU-NH91, TP53 MUT) of the same compound?
A: The IC50 was greater than 8 µM.
